Laboratory results published in patent US7935708B2, “Dihydropyrazolopyrimidinone derivatives” (MSD K.K., priority 2006, dated 2011).

Columns and labels:
[1] = test system: Cdc2 (Cdk1) tyrosine 15 phosphorylation in WiDr cells; experiment: Cdc2 (Cdk1) tyrosine 15-phosphorylation-inhibitory effect in gemcitabine-treated WiDr cells (ELISA); format: cell-based; details: Homo sapiens, gemcitabine 100 nM 24 hours, then test compound with nocodazole 8 hours, read-out: Cdc2-Y15 Phosphorylation-Inhibitory Effect (WiDr, + gemcitabine) (EC50)
From the text: Pharmaceutical Text 2 (Method of Determining Drug Potency in Cells (Cdc2 (Cdk1) Tyrosine 15-Phosphorylation-Inhibitory Effect))
Fetal bovine serum (FBS) was obtained from Morgate; media RPMI1640 and DMEM were from Invitrogen; camptothecin was from Sigma; gemcitabine was from Nippon Eli Lilly; nocodazole and protease inhibitor cocktail were from Sigma; rabbit anti-Cdc2 antibody and mouse anti-Cdc2 antibody were from Santa Cruz Biotechnology; rabbit anti-tyrosine 15-phosphorylated Cdc2 antibody and horseradish peroxidase-labeled anti-mouse IgG antibody were from Cell Signaling Technology; sure blue reserve TMB peroxidase substrate was from Kirkegaard and Perry Laboratories.
Human non-small cell lung cancer cells (NCI-H1299) and human colon cancer cells (WiDr) were obtained from American Type Culture Collection (ATCC).
(§1) c) Method of Effect Determination:
In the method of using WiDr cells, the cells were suspended in DMEM containing 10% FBS, and the cell suspension was applied to a 96-well Nunclondelta-processed plastic plate in an amount of 2000 cells/100 μL/well, in which the cells were incubated overnight in 5% CO2-95% air at 37° C. Gemcitabine was dissolved in PBS, and diluted with DMEM containing 10% FBS, and then this was applied to the plate on which the cells had been previously sowed, in an amount of 50 μL/well in such a manner that the final concentration of gemcitabine could be 100 nM. Then, the cells were incubated for 24 hours at 37° C. in 5% CO2-95% air. The test compound was stepwise diluted with DMSO, then diluted with 1200 nM nocodazole-containing DMEM containing 10% FBS, and applied to the plate on which the gemcitabine-treated cells had been sowed, in an amount of 50 μL/well. The cells were incubated for 8 hours at 37° C. in 5% CO2-95% air, then the culture was removed, and a cytolytic buffer was added to the plate in an amount of 100 μL/well, shaken at 4° C. for 2 hours, then frozen at −80° C., and melted to give a cell solution. Cdc2 and tyrosine 15-phosphorylated Cdc2 in the cell solution were determined through ELISA, and the ratio of tyrosine 15-phosphorylated Cdc2 to Cdc2 was calculated to obtain the 50% phosphorylation-inhibitory concentration of the test compound to the cells (EC50, nM). Cdc2 was determined through ELISA as follows: A rabbit anti-Cdc2 antibody solution, which had been diluted 200-fold with 50 mM carbonate-bicarbonate buffer (pH 9.6), was applied to a 96-well maxisorp plastic plate in an amount of 50 μL/well, and statically kept overnight at 4° C. so as to fix the antibody on the plate. Next, this was washed three times with PBS, and 5% BSA/PBS was added thereto in an amount of 300 μL/well, and statically kept at room temperature for 2 hours, and then again washed three times with PBS. A mouse anti-Cdc2 antibody solution that had been diluted 100-fold with 1% BSA/TBS-T was added to it in an amount of 50 μL/well, and the cell solution was added thereto in an amount of 10 μL/well and statically kept overnight at 4° C. Next, this was washed three times with 0.1% BSA/TBS-T, and then a horseradish peroxidase-labeled anti-mouse IgG antibody solution that had been diluted 2000-fold with 1% BSA/TBS-T was added thereto in an amount of 70 μL/well, and statically kept at room temperature for 3 hours. Finally, this was washed five times with 0.1% BSA/TBS-T, then a substrate of sure blue reserve TMB peroxidase was added to it in an amount of 100 μL/well, and left for coloration in a dark place at room temperature for 15 minutes. Then, 1 M hydrochloric acid was added to it in an amount of 100 μL/well to stop the reaction, and this was analyzed through colorimetry. […]

[2] = test system: Human colon cancer cells (WiDr); experiment: Checkpoint escape effect in gemcitabine-treated WiDr cells (phosphorylated histone H3-positive cells); format: cell-based; details: gemcitabine 100 nM 24 hours, then test compound with nocodazole 8 hours
From the text: Pharmaceutical Text 3 (Method of Determining Drug Potency in Cells (Checkpoint-Removing Effect))
Fetal bovine serum (FBS) was obtained from Morgate; DMEM was from Invitrogen; gemcitabine was from Nippon Eli Lilly; nocodazole and 4′,6-diamidino-2-phenylindole were from Sigma; rabbit anti-phosphorylated histone H3 antibody was from Upstate; and fluorescence-labeled (Alexa Fluor 488) anti-rabbit IgG antibody was from Molecular Probe.
Human colon cancer cells (WiDr) were obtained from American Type Culture Collection (ATCC).
as §1
The cells were suspended in DMEM containing 10% FBS, and the cell suspension was applied to a poly-D-lysine-coated 96-well plastic plate (bought from Becton Dickinson) in an amount of 2000 cells/100 μL/well, in which the cells were incubated overnight in 5% CO2-95% air at 37° C. Gemcitabine was dissolved in phosphate-buffered saline (PBS), and diluted with DMEM containing 10% FBS, and then this was applied to the plate on which the cells had been previously sowed, in an amount of 50 μL/well in such a manner that the final concentration of gemcitabine could be 100 nM. Then, the cells were incubated for 24 hours at 37° C. in 5% CO2-95% air. The test compound was stepwise diluted with dimethylsulfoxide, then diluted with 1200 nM nocodazole-containing DMEM containing 10% FBS, and applied to the plate on which the gemcitabine-treated cells had been sowed, in an amount of 50 μL/well. […] Next, this was washed with PBS, and a solution containing 4′,6-diamidino-2-phenylindole that had been diluted with 1% BSA/PBS to have a concentration 10 μg/mL and a fluorescence-labeled (Alexa Fluor 488) anti-rabbit IgG antibody that had been diluted 250-fold was added to it in an amount 50 μL/well, and reacted in a dark place at room temperature for 60 minutes. Finally, this was washed with PBS, and its fluorescence intensity was determined to calculate the ratio of the phosphorylated histone H3-positive cells (cells that had been in a cell division cycle through removal of checkpoint). […]

Q: With `C=CCn1c(=O)c2cnc(Nc3ccc(N4CCN(C)CC4)c(CO)c3)nc2n1-c1ccsc1` [Example 3, 2-allyl-6-{[3-(hydroxymethyl)-4-(4-methylpiperazin-1-yl)phenyl]amino}-1-(3-thienyl)-1,2-dihydro-3H-pyrazolo[3,4-d]pyrimidin-3-one] as the compound, how does the EC50 [1] read?
A: The EC50 was 0.13 µM.

Q: What about the EC50 [2] of the same compound?
A: The EC50 was 0.268 µM.

Q: Which results are given for `C=CCn1c(=O)c2cnc(Nc3ccc(N4CCN(C)CC4)cc3)nc2n1-c1cccc(N2CCN(C)C2=O)n1` [Example 148, 2-allyl-1-[6-(3-methyl-2-oxoimidazolidin-1-yl)pyridin-2-yl]-6-{[4-(4-methylpiperazin-1-yl)phenyl]amino}-1,2-dihydro-3H-pyrazolo[3,4-d]pyrimidin-3-one]?
A: EC50 [1]: 0.086 µM; EC50 [2]: 0.1 µM
